Counter-ions that a name gives are not always drawn.

These results are taken from patent US11827628B2, “Compositions and methods for inhibition of the JAK pathway” (Rigel Pharmaceuticals, Inc., priority 2005, dated 2023).

One experiment has as its system IL-4 stimulated expression of CD23 in human Ramos B cells (JAK-1 and JAK-3). In words: Assay for Ramos B-Cell Line Stimulated with IL-4 (CD23 upregulation, FACS). The settings on record: Homo sapiens, Ramos, Ramos B cells stimulated with IL-4, CD23 expression by FACS; read-out: IC50, Example 41. The experiment is classed as cell-based. The text has this: One means of assaying for such inhibition is detection of the effect of the 2,4-substituted pyrimidinediamine compounds on the upregulation of downstream gene products. In the Ramos/IL4 assay, B-cells are stimulated with the cytokine Interleukin-4 (IL-4) leading to the activation of the JAK/Stat pathway through phosphorylation of the JAK family kinases, JAK1 and JAK3, which in turn phosphorylate and activate the transcription factor Stat-6. […] To study the effect of inhibitors (e.g., the 2,4-substituted pyrimindinediamine compounds described herein) on the JAK1 and JAK3 kinases, human Ramos B cells are stimulated with human IL-4. Twenty to 24 hours post stimulation, cells are stained for upregulation of CD23 and analyzed using flow cytometry (FACS). […] An exemplary assay of this type is described in greater detail in Example 41
B-cells stimulated with cytokine Interleukin-4 (IL-4) activate the JAK/Stat pathway through phosphorylation of the JAK family kinases, JAK-1 and JAK-3, which in turn phosphorylate and activate the transcription factor Stat-6. […] To study the effect of inhibitors on the JAK family kinases, human Ramos B cells are stimulated with human IL-4.
The Ramos B-cell line was acquired from ATCC (ATCC Catalog No. CRL-1596). The cells were cultured in RPMI 1640 (Cellgro, MediaTech, Inc., Herndon, VA, Cat No. 10-040-CM) with 10% fetal bovine serum (FBS), heat inactivated (JRH Biosciences, Inc, Lenexa, Kansas, Cat No. 12106-500M) according to ATCC propagation protocol. Cells were maintained at a density of 3.5×10^5. The day before the experiment, Ramos B-cells were diluted to 3.5×10^5 cells/mL to ensure that they were in a logarithmic growth phase.
Cells were spun down and suspended in RPMI with 5% serum. 5×10^4 cells were used per point in a 96-well tissue culture plate. Cells were pre-incubated with compound or DMSO (Sigma-Aldrich, St. Louis, MO, Cat No. D2650) vehicle control for 1 hour in a 37° C. incubator. Cells were then stimulated with IL-4 (Peprotech Inc., Rocky Hill, NJ, Cat No. 200-04) for a final concentration of 50 units/mL for 20-24 hours. Cells were then spun down and stained with anti-CD23-PE(BD Pharmingen, San Diego, CA, Cat No. 555711) and analyzed by FACS. Detection was performed using a BD LSR I System Flow Cytometer, purchased from Becton Dickinson Biosciences of San Jose, California The IC50 calculated based on the results of this assay are provided in TABLE XII.
As usually defined, the IC50 is the midpoint of a concentration-inhibition curve. Consider `COc1ccc(CN2C(=O)C(C)Sc3ccc(Nc4nc(Nc5ccc(C)c(S(N)(=O)=O)c5)ncc4F)cc32)cc1` (racemic) [Compound V-9, (R/S)-N2-(3-Aminosulphonyl-4-methylphenyl)-5-fluoro-N4-[2-methyl-3-oxo-4-(4-methoxybenzyl)-benzo[1,4]thiazin-6-yl]-2,4-pyrimidinediamine], for which the 50% inhibitory concentration (IC50) was determined as 1110 nM.

Staying with this experiment, now noted: Homo sapiens, Ramos, Ramos B-cell line stimulated with IL-4; CD23 expression by FACS; read-out: IC50, Example 41.
Consider `COc1cc(Nc2nc(Nc3ccc(C)c(S(N)(=O)=O)c3)ncc2F)cc(OCC#N)c1OC` [Compound I-2, N2-(3-Aminosulphonyl-4-methylphenyl)-N4-(3-cyanomethoxy-4,5-dimethoxyphenyl)-5-fluoro-2,4-pyrimidinediamine], for which the half-maximal inhibitory concentration (IC50) was 532 nM. On the same count and under the same terms, under `N#CCOc1ccc(Nc2nc(Nc3cccc(S(N)(=O)=O)c3)ncc2F)cc1Cl` [Compound I-42, N2-(3-Aminosulfonylphenyl)-N4-(3-chloro-4-cyanomethoxyphenyl)-5-fluoro-2,4-pyrimidinediamine] stands 24.1 nM; under `CCC(=O)NS(=O)(=O)c1cc(Nc2ncc(F)c(Nc3ccc(OCC#N)c(F)c3)n2)ccc1C` [Compound I-48, N4-(4-Cyanomethoxy-3-fluorophenyl)-5-fluoro-N2-(4-methyl-3-propionylaminosulfonylphenyl)-2,4-pyrimidinediamine], 1400 nM. The same measure, in the same setting: under `NC(=O)COc1ccc(Nc2nc(Nc3ccc(S(N)(=O)=O)cc3)ncc2F)cc1F` [Compound I-100, N4-(4-Aminocarbonylmethoxy-3-fluorophenyl)-N2-(4-aminosulfonylphenyl)-5-fluoro-2,4-pyrimidinediamine] stands 380 nM; under `COc1cc(Nc2nc(Nc3ccc(S(N)(=O)=O)cc3)ncc2F)ccc1OCC(N)=O` [Compound I-103, N4-(4-Aminocarbonylmethoxy-3-methoxyphenyl)-N2-(4-aminosulfonylphenyl)-5-fluoro-2,4-pyrimidinediamine], 1250 nM; under `COc1cc(Nc2nc(Nc3cccc(S(N)(=O)=O)c3)ncc2F)ccc1OCC(N)=O` [Compound I-104, N4-(4-Aminocarbonylmethoxy-3-methoxyphenyl)-N2-(3-aminosulfonylphenyl)-5-fluoro-2,4-pyrimidinediamine], 1430 nM.

As to `COc1cc(Nc2nc(Nc3ccc(C)c(S(N)(=O)=O)c3)ncc2F)ccc1OCC(N)=O` [Compound I-105, N4-(4-Aminocarbonylmethoxy-3-methoxyphenyl)-N2-(3-aminosulfonyl-4-methylphenyl)-5-fluoro-2,4-pyrimidinediamine], the 50% inhibitory concentration (IC50) turned out to be 1170 nM. Take `Cc1ccc(Nc2ncc(F)c(Nc3ccc(OCC(N)=O)c(CO)c3)n2)cc1S(N)(=O)=O` [Compound I-106, N4-(4-Aminocarbonylmethoxy-3-hydroxymethylphenyl)-N2-(3-aminosulfonyl-4-methylphenyl)-5-fluoro-2,4-pyrimidinediamine]: the 50% inhibitory concentration (IC50) amounted to 2950 nM. On the same count and under the same terms, the value for `NC(=O)COc1ccc(Nc2nc(Nc3cccc(S(N)(=O)=O)c3)ncc2F)cc1CO` [Compound I-107, N4-(4-Aminocarbonylmethoxy-3-hydroxymethylphenyl]-N2-(3-aminosulfonylphenyl)-5-fluoro-2,4-pyrimidinediamine] was 1510 nM.

Still in this experiment, the particulars now being: Ramos B cells stimulated with IL-4, CD23 expression by FACS; read-out: IC50, Example 41.
Turning to `COc1ccc(CN2C(=O)C(C)Oc3ccc(Nc4nc(Nc5cccc(S(N)(=O)=O)c5)ncc4F)cc32)cc1` (racemic) [Compound V-5, Racemic N2-(3-Aminosulphonylphenyl)-5-fluoro-N4-[2-methyl-3-oxo-4-(4-methoxybenzyl)-benz[1,4]oxazin-6-yl]-2,4-pyrimidinediamine], the IC50 was determined as 696 nM. `Cc1ccc(Nc2ncc(F)c(NC3CNCCC3C)n2)cc1S(N)(=O)=O` (racemic) [VII-4, Racemic N2-(3-aminosulfonyl-4-methylphenyl)-5-fluoro-N4-(4-methylpiperidin-3-yl)-2,4-pyrimidinediamine]: the 50% inhibitory concentration (IC50) was found to be 2490 nM. Still for that read-out and setting: the value for `Cc1ccc(Nc2ncc(F)c(NC3CN(C(=O)CC#N)CCC3C)n2)cc1S(N)(=O)=O` (racemic) [VII-5, Racemic N2-(3-aminosulfonyl-4-methylphenyl)-N4-(1-cyanomethylenecarbonyl-4-methylpiperidin-3-yl)-5-fluoro-2,4-pyrimidinediamine] was 4130 nM.

The same experiment, now with this note: Ramos B-cell line stimulated with IL-4; CD23 expression by FACS; read-out: IC50, Example 41.
“5-Fluoro-N4-(4-[3-methyl-1,2,4-oxadiazol-5-yl]methyleneoxyphenyl)-N2-(5-piperidinesulfonylphenyl)-2,4-pyrimidinediamine [Compound I-272]”: the 50% inhibitory concentration (IC50) amounted to 788 nM. Same read-out and setting: the value for `CC(=O)NS(=O)(=O)c1cc(Nc2ncc(F)c(Nc3ccc(OCC#N)cc3)n2)ccc1C` [Compound I-36, N2-(3-Acetylaminosulfonyl-4-methyl)phenyl-N4-(4-cyanomethyleneoxy)phenyl-5-fluoro-2,4-pyrimidinediamine] was 8800 nM; that for `COc1cc(Nc2nc(Nc3cccc(S(N)(=O)=O)c3)ncc2F)ccc1NC(=O)CC#N` [Compound I-84, N2-(3-Aminosulfonylphenyl)-5-fluoroN4-[3-methoxy-4-(N-cyanoacetyl)aminophneyl]-2,4-pyrimidinediamine] was 1400 nM.

For `COc1cc(Nc2nc(Nc3ccc(C)c(S(N)(=O)=O)c3)ncc2F)ccc1NC(=O)CC#N` [Compound I-85, N2-(3-Aminosulfonyl-4-methylphenyl)-5-fluoroN4-[3-methoxy-4-(N-cyanoacetyl)aminophneyl]-2,4-pyrimidinediamine], the concentration for half-maximal inhibition (IC50) turned out to be 791 nM.

As for `CN(C(=O)CC#N)c1ccc(Nc2nc(Nc3cccc(S(N)(=O)=O)c3)ncc2F)cc1` [Compound I-86, N2-(3-Aminosulfonylphenyl)-N4-[4-(N-cyanoacetyl-N-methyl)aminophneyl]-5-fluoro-2,4-pyrimidinediamine], the IC50 stood at 916 nM. Same read-out and setting: the value for `Cc1ccc(Nc2ncc(F)c(Nc3ccc(N(C)C(=O)CC#N)cc3)n2)cc1S(N)(=O)=O` [Compound I-87, N2-(3-Aminosulfonyl-4-methylphenyl)-N4-[4-(N-cyanoacetyl-N-methyl)aminophneyl]-5-fluoro-2,4-pyrimidinediamine] was 1040 nM.

Regarding `NC(=O)COc1cccc(Nc2nc(Nc3cccc(S(N)(=O)=O)c3)ncc2F)c1` [Compound I-88, N4-(3-Aminocarbonylmethoxy)phenyl-N2-(3-aminosulfonyl)phenyl-5-fluoro-2,4-pyrimidinediamine], the IC50 is 1080 nM. For the compound `CN1CCN(S(=O)(=O)c2cccc(Nc3ncc(F)c(Nc4cccc(OCC(N)=O)c4)n3)c2)CC1` [Compound I-89, N4-(3-Aminocarbonylmethoxy)phenyl-5-fluoro-N2-[3-(4-methylpiperazin-1-yl)sulfonyl]phenyl-2,4-pyrimidinediamine], the IC50 was 5500 nM. Same read-out and setting: the value for `NC(=O)COc1cccc(Nc2nc(Nc3ccc(S(N)(=O)=O)cc3)ncc2F)c1` [Compound I-91, N4-(3-Aminocarbonylmethoxy)phenyl-N2-(4-aminosulfonyl)phenyl-5-fluoro-2,4-pyrimidinediamine] was 2030 nM; that for `NC(=O)COc1ccc(Nc2nc(Nc3cccc(S(N)(=O)=O)c3)ncc2F)cc1` [Compound I-111, N4-(4-Aminocarbonylmethoxy)phenyl-N2-(3-aminosulfonyl)phenyl-5-fluoro-2,4-pyrimidinediamine] was 890 nM. On the same count and under the same terms, the value for `CN1CCN(S(=O)(=O)c2cccc(Nc3ncc(F)c(Nc4ccc(OCC(N)=O)cc4)n3)c2)CC1` [Compound I-112, N4-(4-Aminocarbonylmethoxy)phenyl-5-fluoro-N2-[3-(4-methylpiperazin-1-yl)sulfonyl]phenyl-2,4-pyrimidinediamine] was 2360 nM.

The same experiment, now with this note: Ramos B-cell line stimulated with IL-4; CD23 expression by FACS; sodium salt; read-out: IC50, Example 41.
Turning to `CCC(=O)NS(=O)(=O)c1cc(Nc2ncc(F)c(Nc3ccc(OCC#N)cc3)n2)ccc1C` [Compound I-31, N4-(4-Cyanomethyleneoxy)phenyl-5-fluoro-N2-(4-methyl-3-propionylaminosulfonyl)phenyl-2,4-pyrimidinediamine sodium salt], the 50% inhibitory concentration (IC50) was 4630 nM.

Regarding `CC(=O)NS(=O)(=O)c1cc(Nc2ncc(F)c(Nc3ccc(OCC#N)cc3)n2)ccc1C` [Compound I-38, N2-(3-Acetylaminosulfonyl-4-methyl)phenyl-N4-(4-cyanomethyleneoxy)phenyl-5-fluoro-2,4-pyrimidinediamine sodium salt], the IC50 was found to be 6440 nM.
